The results in this text go back to patent US20240368109A1, “ALLOSTERIC MODULATORS OF NICOTINIC ACETYLCHOLINE RECEPTORS” (MERCK SHARP & DOHME LLC, priority 2021, published 2024).

In this experiment the target is human α7 nAChR (Homo sapiens (Human), UniProt P36544). The experiment in a line: Automated patch-clamp electrophysiology functional assay (Assay A). Format: cell-based. Conditions: IonFlux HT whole-cell population patch, HEK cells expressing human α7/RIC-3, 40 μM acetylcholine. On the procedure:
The α7 nAChR positive allosteric modulator (PAM) activity of the present compounds may be tested using assays known in the art. The α7 nAChR PAMs described herein have activities in an automated patch-clamp electrophysiology functional assay as described in the examples. The assay was performed using the IonFlux HT in a whole-cell, population patch configuration. See Golden et al. Assay Drug Dev. Technol. (2011) 9:608-619. The compounds were assessed for their ability to modulate the function of the human α7 nAChR stably expressed in a HEK cell line both in the presence, and in the absence of the natural α7 agonist acetylcholine. By performing a series of such measurements at different concentrations, the effective concentration of the α7 nAChR PAMs (EC50) was determined. See Spencer et al. Assay Drug Dev. Technol. (2012) 10:313-324.
Direct activation of α7 (agonism), and potentiation of acetylcholine-evoked α7 currents was determined as follows:
Automated Patch-Clamp Electrophysiology Functional Assay (Assay A)
Automated patch-clamp electrophysiology was performed using the IonFluxHT (Fluxion Biosciences Inc., San Francisco, CA) in the whole-cell, population patch configuration. Test compounds were assessed for their ability to modulate the function of the α7 nicotinic acetylcholine receptor both in the presence, and in the absence of the natural α7 agonist acetylcholine. A HEK cell line stably expressing both human RIC-3 and human α7 (PrecisION hnAChR α7/RIC-3, Eurofins Pharma, St. Charles, MO) was cultured in 175 cm^2 triple-layer tissue culture flasks to no more than 90% confluency in DMEM/F-12 growth media supplemented with 10% heat-inactivated fetal bovine serum, 1% non-essential amino acids, 0.625 μg/mL Puromycin, and 400 μg/mL Geneticin. Immediately prior to assay, cells were detached by first aspirating growth media, rinsing with Dulbecco's phosphate buffered saline, and then adding 10 mL of Accutase (Innovative Cell Technologies, San Diego, CA) to the flask and then incubating at 37° C. for 5 minutes. Detached cells were then recovered by the addition of 40 mL of CHO-serum-free media supplemented with 25 mM HEPES, and rocked gently in a 50 mL conical tube for 20 minutes prior to patch-clamp assay. After recovery, cells were pelleted by centrifugation at 1,000 RPM for 1 minute in a compact bench top centrifuge; recovery media was aspirated and cells were resuspended in external recording solution (150 mM NaCl, 5 mM KCl, 2 mM CaCl2), 1 mM MgCl2, 10 mM HEPES, 12 mM dextrose) to a density of 5.0×10^6 cells/mL. The cell suspension was added to the cell inlet wells on an IonFlux HT population patch plate which had previously been rinsed and primed with deionized H2O. Test compounds were serially diluted in DMSO and then resuspended to the final test concentration in external recording solution, with, or without 40 μM acetylcholine added to the external recording solution; test compounds were then transferred to the IonFlux HT population patch plate. Internal recording solution (110 mM TrisPO4, 28 mM TrisBase, 0.1 mM CaCl2), 2 mM MgCl2, 11 mM EGTA, 4 mM MgATP) was added to the internal recording solution inlet wells on the IonFlux HT patch plate previously loaded with cells and test compounds, and the plate loaded into the IonFlux HT instrument. A protocol was executed on the IonFlux HT to trap the cells, break into the cells, and establish the whole-cell recording configuration; cells were voltage-clamped at a holding potential of −60 mV for the duration of the experiment, all experiments were conducted at room temperature, and the IonFlux HT injection pressure was 8 psi for solution applications. Upon establishing the whole-cell configuration, external recording solution was perfused into the recording chambers for 120 seconds and then 40 μM acetylcholine was applied for 1 second and immediately washed off with external recording solution for 60 seconds. […]

human α7 nAChR, sequence (P36544 23-502): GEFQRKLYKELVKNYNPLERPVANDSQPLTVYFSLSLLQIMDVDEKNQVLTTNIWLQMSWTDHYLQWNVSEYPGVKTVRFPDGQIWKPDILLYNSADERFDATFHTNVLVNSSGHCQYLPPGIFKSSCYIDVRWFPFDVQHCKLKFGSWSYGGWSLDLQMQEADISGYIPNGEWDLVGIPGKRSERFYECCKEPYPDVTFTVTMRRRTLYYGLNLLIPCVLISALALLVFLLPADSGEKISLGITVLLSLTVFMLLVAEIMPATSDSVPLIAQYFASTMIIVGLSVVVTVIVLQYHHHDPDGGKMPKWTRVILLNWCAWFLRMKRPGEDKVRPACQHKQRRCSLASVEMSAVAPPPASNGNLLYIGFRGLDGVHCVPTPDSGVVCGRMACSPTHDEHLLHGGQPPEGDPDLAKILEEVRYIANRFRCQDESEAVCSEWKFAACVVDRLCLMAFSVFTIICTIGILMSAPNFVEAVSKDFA

A word on the EC50: it is the concentration needed to bring the measured effect to its halfway point. With `CCOc1ccc([C@@H](NC(=O)C2C3COc4ccc(F)cc4C32)C(F)(F)F)cn1` (stereo partly drawn) [Example A13, exo-N-[(1R)-1-(6-ethoxypyridin-3-yl)-2,2,2-trifluoroethyl]-6-fluoro-1,1a,2,7b-tetrahydrocyclopropa[c][1]benzopyran-1-carboxamide], the half-maximal effective concentration (EC50) (electrophysiology EC50 values) came to 1.1 µM and the concentration for a half-maximal effect (EC50) (potency class) was in the range of 0.5 to 5 µM.
In the case of `COC(=O)C(NC(=O)C1C2Oc3ccc(F)cc3C21)c1cccc(Cl)c1` (stereo not drawn) [Example C29, methyl 2-(3-chlorophenyl)-2-[(exo-5-fluoro-1a,6b-dihydro-1H-cyclopropa[b][1]benzofuran-1-carbonyl)amino]acetate], the concentration giving a half-maximal response (EC50) is 1.8 µM (electrophysiology EC50 values) and 0.5 to 5 µM (potency class).
With `O=C(N[C@H]1COCc2ccc(F)cc21)C1C2Oc3ccc(F)cc3C21` (stereo partly drawn) [Example C1, exo-5-fluoro-N-[(4R)-6-fluoro-3,4-dihydro-1H-2-benzopyran-4-yl]-1a,6b-dihydro-1H-cyclopropa[b][1]benzofuran-1-carboxamide], the 50% effective concentration (EC50) reads like this: (electrophysiology EC50 values) 4.8 µM; (potency class) 0.5 to 5 µM.
For `CCOc1ccc([C@H](COC)NC(=O)[C@@H]2[C@H]3Oc4ccnc(OC)c4[C@H]32)cc1` [Example B13, exo-N-[(1R)-1-(4-ethoxyphenyl)-2-methoxyethyl]-6-methoxy-1a,6b-dihydro-1H-cyclopropa[4,5]furo[3,2-c]pyridine-1-carboxamide] the same measures were 1.1 µM and 0.5 to 5 µM.
For `CCOc1ccc([C@H](COC)NC(=O)C2C3Oc4c(Cl)cccc4C32)cc1` (stereo partly drawn) [Example B7, exo-3-chloro-N-[(1R)-1-(4-ethoxyphenyl)-2-methoxyethyl]-1a,6b-dihydro-1H-cyclopropa[b][1]benzofuran-1-carboxamide] the same measures were 0.48 µM and 0.1 to 0.5 µM.
For the compound `O=C(NCc1cc(-c2ccccc2)no1)C1C2Oc3ccc(F)cc3C21` (stereo not drawn) [Example C48, exo-5-fluoro-N-[(3-phenyl-1,2-oxazol-5-yl)methyl]-1a,6b-dihydro-1H-cyclopropa[b][1]benzofuran-1-carboxamide], the EC50 (electrophysiology EC50 values) turned out to be 0.55 µM and the 50% effective concentration (EC50) (potency class) lay in the range of 0.5 to 5 µM.
The like results for `O=C(NCc1ccc(-n2cccc2)cc1)C1C2Oc3ccc(F)cc3C21` (stereo not drawn) [Example C25, exo-5-fluoro-N-{[4-(1H-pyrrol-1-yl)phenyl]methyl}-1a,6b-dihydro-1H-cyclopropa[b][1]benzofuran-1-carboxamide] were, in that order, 0.85 µM and 0.5 to 5 µM.
For `O=C(NCc1cc(-c2ccccn2)no1)C1C2Oc3ccc(F)cc3C21` (stereo not drawn) [Example C46, exo-5-fluoro-N-{[3-(pyridin-2-yl)-1,2-oxazol-5-yl]methyl}-1a,6b-dihydro-1H-cyclopropa[b][1]benzofuran-1-carboxamide] the same measures were 0.52 µM and 0.5 to 5 µM.
For `O=C(N[C@@H](CO)C1CCCCC1)C1C2Sc3ccccc3C21` (stereo partly drawn) [Example C2, exo-N-[(1R)-1-cyclohexyl-2-hydroxyethyl]-1a,6b-dihydro-1H-cyclopropa[b][1]benzothiophene-1-carboxamide] the same measures were 2.3 µM and 0.5 to 5 µM.
Regarding `O=C(NCc1ccc(Oc2ccccn2)cc1)C1C2Oc3ccc(F)cc3C21` (stereo not drawn) [Example C34, exo-5-fluoro-N-({4-[(pyridin-2-yl)oxy]phenyl}methyl)-1a,6b-dihydro-1H-cyclopropa[b][1]benzofuran-1-carboxamide], the EC50 reads like this: (electrophysiology EC50 values) 0.81 µM; (potency class) 0.5 to 5 µM.
For the compound `O=C(NCc1cc(-c2ccc(Cl)cc2)no1)C1C2Oc3ccc(F)cc3C21` (stereo not drawn) [Example C52, exo-N-{[3-(4-chlorophenyl)-1,2-oxazol-5-yl]methyl}-5-fluoro-1a,6b-dihydro-1H-cyclopropa[b][1]benzofuran-1-carboxamide], where the note is “potency class”, the EC50 lay within 0.5 to 5 µM.
For the compound `CCOc1ccc([C@@H](NC(=O)C2C3Oc4ccc(F)cc4C32)C(F)F)cn1` (stereo partly drawn) [Example C5, exo-N-[(1R)-1-(6-ethoxypyridin-3-yl)-2,2-difluoroethyl]-5-fluoro-1a,6b-dihydro-1H-cyclopropa[b][1]benzofuran-1-carboxamide], the EC50 is, setting by setting: (electrophysiology EC50 values) 1.4 µM; (potency class) 0.5 to 5 µM.
The like results for `CCOc1ccc([C@H](COC)NC(=O)C2C3Oc4ccc(F)cc4C32)cc1` (stereo partly drawn) [Example B5, exo-N-[(1R)-1-(4-ethoxyphenyl)-2-methoxyethyl]-5-fluoro-1a,6b-dihydro-1H-cyclopropa[b][1]benzofuran-1-carboxamide] were, in that order, 0.76 µM and 0.5 to 5 µM.
For the compound `CCOc1ccc([C@H](COC)NC(=O)C2C3Oc4c(Cl)cccc4C32)cc1` (stereo partly drawn) [Example B6, exo-3-chloro-N-[(1R)-1-(4-ethoxyphenyl)-2-methoxyethyl]-1a,6b-dihydro-1H-cyclopropa[b][1]benzofuran-1-carboxamide], where the note is “potency class”, the EC50 is 0.1 to 0.5 µM.
On the same count and under the same terms, the figure for `COc1cc([C@H](CF)NC(=O)C2C3COc4ccc(F)cc4C32)ccn1` (stereo partly drawn) [Example A16, exo-6-fluoro-N-[(1R)-2-fluoro-1-(2-methoxypyridin-4-yl)ethyl]-1,1a,2,7b-tetrahydrocyclopropa[c][1]benzopyran-1-carboxamide] is 0.5 to 5 µM.
For `COc1cc([C@@H](NC(=O)C2C3COc4ccc(F)cc4C32)C(F)(F)F)ccn1` (stereo partly drawn) [Example 4, exo-6-Fluoro-N-[(1R)-2,2,2-trifluoro-1-(2-methoxypyridin-4-yl)ethyl]-1,1a,2,7b-tetrahydrocyclopropa[c][1]benzopyran-1-carboxamide], the EC50 by setting is: (electrophysiology EC50 values) 1.1 µM; (potency class) 0.5 to 5 µM.
In the case of `O=C(NCc1cc(C(F)F)nc(C(F)F)c1)C1C2Oc3ccc(F)cc3C21` (stereo not drawn) [Example C19, exo-N-{[2,6-bis(difluoromethyl)pyridin-4-yl]methyl}-5-fluoro-1a,6b-dihydro-1H-cyclopropa[b][1]benzofuran-1-carboxamide], the EC50 (electrophysiology EC50 values) turned out to be 0.6 µM and the concentration for a half-maximal effect (EC50) (potency class) lay within 0.5 to 5 µM.
The like results for `COC(=O)[C@@H](NC(=O)C1C2Oc3ccc(F)cc3C21)c1cccc(F)c1` (mixture of isomers) [Example C13, methyl 2-(3-fluorophenyl)-2-[(exo-5-fluoro-1a,6b-dihydro-1H-cyclopropa[b][1]benzofuran-1-carbonyl)amino]acetate] were, in that order, 3.5 µM and 0.5 to 5 µM.
For `O=C(NCCc1ccccc1)C1C2Oc3ccc(F)cc3C21` (stereo not drawn) [Example C11, exo-5-fluoro-N-(2-phenylethyl)-1a,6b-dihydro-1H-cyclopropa[b][1]benzofuran-1-carboxamide] the same measures were 2.2 µM and 0.5 to 5 µM.
Consider `O=C(N[C@@H](CO)C1CCCCC1)C1C2COc3ccccc3C21` (stereo partly drawn) [Example A6, exo-N-[(1R)-1-cyclohexyl-2-hydroxyethyl]-1,1a,2,7b-tetrahydrocyclopropa[c][1]benzopyran-1-carboxamide], for which the 50% effective concentration (EC50) reads like this: (electrophysiology EC50 values) 1.1 µM; (potency class) 0.5 to 5 µM.
The like results for `CCOc1ccc([C@H](COC)NC(=O)C2C3Oc4c(Br)cccc4C32)cc1` (stereo partly drawn) [Example B9, exo-3-bromo-N-[(1R)-1-(4-ethoxyphenyl)-2-methoxyethyl]-1a,6b-dihydro-1H-cyclopropa[b][1]benzofuran-1-carboxamide] were, in that order, 0.39 µM and 0.1 to 0.5 µM.
The like results for `CCOc1ccc([C@H](COC)NC(=O)C2C3Oc4cc(Br)ccc4C32)cc1` (stereo partly drawn) [Example B15, exo-4-bromo-N-[(1R)-1-(4-ethoxyphenyl)-2-methoxyethyl]-1a,6b-dihydro-1H-cyclopropa[b][1]benzofuran-1-carboxamide] were, in that order, 0.48 µM and 0.1 to 0.5 µM.
